Where “and” joins values, the source holds several entries; their conditions need not be identical. Identical values can stand only once. Like-named read-outs stand apart in the source and are kept apart here.
How the values were obtained:
[1] = system: inflammatory and neuropathic pain; conditions: formalin test and spinal nerve ligation; cited from earlier work
[2] = human, in vivo; cited from earlier work
[3] = cited from earlier work
[4] = system: subjects with osteoarthritis of the knee; assay: Osteoarthritis of the knee efficacy study (Phase 2): NRS pain score; format: in vivo, human; conditions: 1000 μg intra-articular, three weeks following administration, P=0.03
Experimental: The study is designed to include 12 evaluation subjects (Patients suffering a defined pain: >40 mm on VAS). […] Patients are treated randomly and in double-blind fashion. Gross and microscopic pathology analysis are completed for each treatment group. Each subject has 3 study visits: a Screening Day (Day −7 to −1), the Treatment Day (Day 0), and a Post-Treatment Day (scheduled for Day +2, +4, +7, or +14). On the Treatment Day the subject is randomized, pre-treatment evaluation is performed. The patient is brought into the procedure room, and a VAS pain score is taken (0 mm—no pain, 100 mm—extreme pain). Once the patient marks his or her pain on the card, he/she is prepped for knee cannulation. Once the cannula is placed, the patient receives, by intra-articular infiltration, 3 mg/kg (maximum dose of 200 mg) of 2% lignocaine into the knee scheduled to be replaced.
VAS pain scores as well as verbal reports are taken immediately following administration, as well as prior to knee replacement surgery. On the Post-Treatment Day, a study evaluation is performed followed by the scheduled knee replacement, with intra-operative bone and soft tissue biopsies performed for subsequent examination. […]
Changes in NRS (Numerical Rating Scale) pain scores were measured at three weeks following administration.

[5] = system: subjects with osteoarthritis of the knee; assay: Osteoarthritis of the knee safety study (Phase 1): intra-articular purified capsaicin after lignocaine; safety, tolerability, VAS pain; format: in vivo, human
Experimental: The primary objective of the study was to evaluate the safety and tolerability of intra-articular capsaicin, when co-administered with intra-articular local anesthetic, compared to placebo, in subjects with end-stage osteoarthritis of the knee, already scheduled to receive knee replacements.
The study was designed to include 16 evaluation subjects. […] Sixteen subjects completed the study.
Patients were treated randomly and in double-blind fashion in four treatment groups, with each group having a progressively longer interval between the intra-articular administration of study medication and subsequent total knee replacement (2, 4, 7, and 14 days). […] Gross and microscopic pathology analysis was completed for each treatment group before the next treatment group was treated.
Each subject had 3 study visits: a Screening Day (Day −7 to −1), the Treatment Day (Day 0), and a Post-Treatment Day (scheduled for Day +2, +4, +7, or +14). On the Treatment Day the subject was randomized, pre-treatment evaluation was performed. The patients were brought into the procedure room, and a VAS pain score was taken (0 mm—no pain, 100 mm—extreme pain). Once the patient had marked his or her pain on the card, he/she was prepped for knee cannulation. Once the cannula was placed, the patient received by intra-articular infiltration, 3 mg/kg (maximum dose of 200 mg) of 2% lignocaine into the knee scheduled to be replaced.
VAS pain scores as well as verbal reports were taken immediately following administration, as well as prior to knee replacement surgery. No subjects discontinued from the study due to adverse events.
On the Post-Treatment Day, study evaluation was performed followed by the scheduled knee replacement, with intra-operative bone and soft tissue biopsies performed for subsequent examination. […] This therefore left the 3 placebo and 9 active patients from the 4 day, 7 day, and 14 day cohorts.

[6] = system: subjects undergoing transpositional osteotomy (bunionectomy); assay: Bunionectomy efficacy study (Phase II): capsaicin dripped into the wound before closure; VAS pain and rescue medication; format: in vivo, human; conditions: for VAS pain score at the operation site (mean +/− SEM): 1000 μg, n = 11
Experimental: The primary efficacy endpoint was the proportion of subjects in each treatment group requiring opioid analgesia in the first 24 hours post-operatively. The proportions were compared amongst treatment groups using the Cochran-Haenszel test. Secondary efficacy end points included: i) proportion of subjects in each treatment group requiring opioid analgesia in the first 36 hour period post-operatively (Similarly, the proportions were compared amongst treatment groups using the Cochran-Haenszel test); ii) proportion of subjects in each treatment group requiring opioid analgesia in the 10 day period post-operatively (Similarly, the proportions were compared amongst treatment groups using the Cochran-Haenszel test); iii) time to first usage of opioid analgesia in each treatment group (a survival analysis approach will be used: the product-limit (Kaplan-Meier) method will be applied to time to first usage of opioid analgesia. The median time to first usage of opioid analgesia will be estimated in both treatment groups. Pairwise comparisons will be performed to test for equality of the survival curves between the 2 treatment groups using both the log-rank and the Wilcoxon test); iv) total usage of analgesia in each treatment group (the total usage of analgesia will be compared by an analysis of variance with treatment and center as independent variables. A pairwise comparison will be performed between the treatment groups); and v) VAS assessment of pain at the site of operation in each treatment group (The VAS score at each time point will be compared by an analysis of variance with treatment and center as independent variables. A pairwise comparison will be performed between the treatment groups). […] The efficacy analysis was performed on the data obtained ten days postoperatively. The safety analysis was performed based on the safety data for the entire study, including the 6 week and 12 week follow-up periods. The blind was broken at the time the efficacy analysis was performed. However, the individual treatment assignment was available to the statistical analysis group only. All other personnel involved in the study, including the Investigator, study monitor and proprietary staff, remained blinded until the entire study was completed.
The study was designed to include 40 evaluation subjects. […] Each subject had six (6) study visits: a Screening Day (Day −28 to −1), an Operation Day (Day 0), and four (4) Follow-up visits (scheduled for Days 3, 10 and weeks 6 and 12).
On Operation Day (Day 0) the following was performed: a) Pre-operation: Prior to the initiation of an ankle block, inclusion/exclusion criteria assessment was performed. […] Immediately prior to wound closure, the Investigator slowly dripped the study medication (4 mL) from a syringe into the wound, ensuring even tissue exposure. The wound was then be closed according to normal practices and procedures.
In the 24 hours following administration of study medication, vital signs (supine pulse rate and blood pressure) were recorded at 1, 2, 4 and 24 hours post administration. VAS assessment of pain at the operation site was performed at 1, 4, 8, 12 and 24 hours post administration. In those instances where VAS measurements coincide with blood sampling procedures, the VAS assessment was performed first. […] The quantity of each blood sample was 10 mL. Laboratory safety assessments, e.g., haematology, biochemistry, urinalysis were performed at 24 hours post administration. Adverse events were spontaneously reported by the subject and recorded. Rescue analgesia medication was provided to the subject if required (initially diclofenac 50 mg, repeated at 8 hourly intervals if necessary). When diclofenac was judged by the Investigator to provide inadequate pain relief then the subject was provided with alfentanil 1 mg, repeated at 6 hourly intervals, if necessary.

[7] = clinical; design: species or system human; conditions: in vivo
Experimental: The pharmacokinetic parameters of Cmax, Tmax, AUC(0−tlast) and t½ were evaluated.

[8] = system: radiation induced hyperalgesia; conditions: systemic, cited from earlier work

CN(C)CCC=C1c2ccccc2CCc2ccccc21 [amitriptyline]
action when administered locally [1]: produced local antinociceptive actions

CNCCCN1c2ccccc2CCc2ccccc21 [desipramine]
action when administered locally [1]: produced local antinociceptive actions

CN1C(C(=O)Nc2ccccn2)=C(O)c2ccccc2S1(=O)=O [piroxicam]
patients experiencing gross bleeding and ulceration [2]: up to 4%

COc1cc(CNC(=O)CCCC/C=C/C(C)C)ccc1O [purified capsaicin, N-(4-hydroxy-3-methoxybenzyl)-8-methylnon-trans-6-enamide]
solubility in alcohol, ether, benzene and chloroform [3]: freely soluble | solubility in water [3]: practically insoluble | final NRS (Numerical Rating Scale) pain score [4]: 3.97 | incidence of post injection hyperalgesia ([5]; 10 μg dose group): no subjects | patients reporting transient burning pain immediately following instillation ([5]; 10 μg intra-articular): 0 of 4 | duration of post-administration (hyper)algesic pain, per subject ([5]; 100 μg dose group): 9 min | incidence of post injection hyperalgesia ([5]; 100 μg dose group): 1 subject | subjects requiring intervention for post-injection (hyper)algesia ([5]; 100 μg dose group): 1 subject | patients reporting transient burning pain immediately following instillation ([5]; 100 μg intra-articular): 1 of 4 | duration of post-administration (hyper)algesic pain, per subject ([5]; 300 μg dose group): 17 minutes and 25 minutes (2×) and 42 minutes | incidence of post injection hyperalgesia ([5]; 300 μg dose group): 4 subjects | subjects requiring intervention for post-injection (hyper)algesia ([5]; 300 μg dose group): 4 subjects | patients reporting transient burning pain immediately following instillation ([5]; 300 μg intra-articular): 4 of 4 | reduction of VAS pain score, before administration vs day of surgery ([5]; 9 active patients of the 4, 7 and 14 day cohorts, doses 10-300 μg pooled): 62±14% | effects on laboratory safety parameters or vital signs ([5]; 10-300 μg intra-articular): no treatment related effects | effects on soft tissue, cartilage or bone upon histopathological examination ([5]; 10-300 μg intra-articular): no treatment related effects | erythema, edema or hemorrhage at the site of injection ([5]; 10-300 μg intra-articular): no treatment related signs | gross and microscopic pathology ([5]; 10-300 μg intra-articular): normal | leakage of study drug from the joint space ([5]; 10-300 μg intra-articular): low leakage | systemic side effects ([5]; 10-300 μg intra-articular): No treatment related systemic side effects | median decrease from baseline to pre-operative time point in VAS for pain at the target knee, vs placebo ([5]; all 3 capsaicin dose groups): substantially greater | tolerability ([5]; all dose levels (10, 100, 300 μg)): well tolerated | onset of post-administration (hyper)algesia after administration ([5]; all episodes, 100 and 300 μg): ≤ 5 min | effect on proprioception at the injected knee ([5]; any dose group, any time point): no discernable effect | indication of efficacy on VAS pain ([5]; any of the dose levels (10, 100, 300 μg)): No clear treatment related indication of efficacy | time at which a subject required rescue, per subject ([6]; 1000 μg prior to wound closure): 1 h and 4 h and 5 h and 8 h and 12 h | study subjects requiring rescue ([6]; 1000 μg prior to wound closure, 72 hours, n=11): 45% | subjects that did not rescue in 72 hours ([6]; 1000 μg prior to wound closure, n=11): 6 subjects | VAS pain score at the operation site (mean +/− SEM) ([6]; 1 hr): 11.1 +/− 7.3 | VAS pain score at the operation site (mean +/− SEM) ([6]; 8 hr): 5.5 +/− 2.3 | VAS pain score at the operation site (mean +/− SEM) ([6]; 12 hr): 8.2 +/− 3.8 | VAS pain score at the operation site (mean +/− SEM) ([6]; 24 hr): 1.9 +/− 1.0 | VAS pain score at the operation site (mean +/− SEM) ([6]; 48 hr): 5.9 +/− 2.5 | VAS pain score at the operation site (mean +/− SEM) ([6]; 72 hr): 10.6 +/− 3.5 | Tmax ([7]; human, 300 ug): 30 min | half-life ([7]; human, 300 ug, terminal exponential half life, per subject): 19.6 min | plasma concentrations compared with the 100 μg and 300 μg dose groups [7]: clearly lower | effect on radiation induced hyperalgesia ([8]; final doses of 25 mg/kg or less, prior to ultra violet radiation): prevented radiation induced hyperalgesia | effect on pain threshold ([8]; final doses of 25 mg/kg or less): did not elevate the pain threshold above normal range | effect on pain threshold ([8]; final doses of 50 mg/kg or greater): pain threshold elevated
